Reference: US8648066B2 (Exelixis, Inc., priority 2009, dated 2014)
Blank lines part the entries; values can stand above or below the compound they belong to.

Target: mTOR/GbL/Raptor (mTORC1) (Homo sapiens, UniProt P42345)
Assay: mTOR/GbL/Raptor (mTORC1) ELISA assay
Assay type: biochemical
Conditions: phosphorylation of 4E-BP1; 0.2 nM mTORC1, 10 μM ATP; read-out: IC50 in this assay (mTORC1 ELISA)
How it was run: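 Human mTORC1 (0.2 nM) phosphorylated 50 nM His-tagged 4E-BP1 with 10 µM ATP in HEPES pH 7.2 containing 10 mM MnCl2, 120 min at ambient temperature. Substrate was captured on Ni-chelate plates; phospho-4E-BP1 was detected by primary antibody and HRP secondary with luminescence.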

SMILES: Cc1c(N2CCOc3ccc(-c4cnc5nc(C6CC6)[nH]c5c4)cc3C2)ncnc1N(C)[C@@H](C)c1ccccc1 [Example 536, 6-[7-(2-cyclopropyl-1H-imidazo[4,5-b]pyridin-6-yl)-2,3-dihydro-1,4-benzoxazepin-4(5H)-yl]-N,5-dimethyl-N-[(1S)-1-phenylethyl]pyrimidin-4-amine]
IC50: 50 to 250 nM

SMILES: CC[C@@H](C)NCc1nc2c(c(N3CCOc4ccc(-c5cnc6nc(C)[nH]c6c5)cc4C3)n1)CC(C)(C)CC2 [Example 300, (2R)-N-({6,6-dimethyl-4-[7-(2-methyl-1H-imidazo[4,5-b]pyridin-6-yl)-2,3-dihydro-1,4-benzoxazepin-4(5H)-yl]-5,6,7,8-tetrahydroquinazolin-2-yl}methyl)butan-2-amine]
IC50: 10 to 50 nM

SMILES: CCNc1nc2ncc(-c3ccc4c(c3)CN(c3ncnc(C)c3Cc3ccc(F)cc3)CCO4)cc2[nH]1 [Example 250, N-ethyl-6-(4-{5-[(4-fluorophenyl)methyl]-6-methylpyrimidin-4-yl}-2,3,4,5-tetrahydro-1,4-benzoxazepin-7-yl)-1H-imidazo[4,5-b]pyridin-2-amine]
IC50: ≤ 10 nM

SMILES: Cc1nc2cc(-c3ccc4c(c3)CN(c3nc(C(C)N)nc5c3CC(C)(C)CC5)CCO4)ccc2[nH]1 (stereo not drawn) [Example 668, 1-{6,6-dimethyl-4-[7-(2-methyl-1H-benzimidazol-5-yl)-2,3-dihydro-1,4-benzoxazepin-4(5H)-yl]-5,6,7,8-tetrahydroquinazolin-2-yl}ethanamine]
IC50: ≤ 10 nM

SMILES: COc1c(O)ccc2c(N3CCOc4ccc(-c5ccc6nc(C)[nH]c6c5)cc4C3)ncnc12 [Example 164, 4-[7-(2-methyl-1H-benzimidazol-6-yl)-2,3-dihydro-1,4-benzoxazepin-4-(5H)-yl]-8-(methyloxy)quinazolin-7-ol]
IC50: 250 to 1000 nM

SMILES: Cc1nc2ccc(-c3ccc4c(c3)CN(c3ncnc5c(C#N)c6n(c35)CCCC6)CCO4)cc2[nH]1 [Example 51, 4-[7-(2-methyl-1H-benzimidazol-6-yl)-2,3-dihydro-1,4-benzoxazepin-4(5H)-yl]-6,7,8,9-tetrahydropyrimido[4,5-b]indolizine-10-carbonitrile]
IC50: 250 to 1000 nM

SMILES: CCc1nc(CN(C)C)nc(N2CCOc3ccc(-c4ccc5[nH]c(C)nc5c4)cc3C2)c1C [Example 343, 1-{4-ethyl-5-methyl-6-[7-(2-methyl-1H-benzimidazol-5-yl)-2,3-dihydro-1,4-benzoxazepin-4(5H)-yl]pyrimidin-2-yl}-N,N-dimethylmethanamine]
IC50: 1000 to 2000 nM

SMILES: COc1ncc(-c2ccc3c(c2)CN(c2ncnc4c2CC(C)(C)CC4)CCO3)cc1NS(C)(=O)=O [Example 628, N-{5-[4-(6,6-dimethyl-5,6,7,8-tetrahydroquinazolin-4-yl)-2,3,4,5-tetrahydro-1,4-benzoxazepin-7-yl]-2-(methyloxy)pyridin-3-yl}methanesulfonamide]
IC50: 10 to 50 nM

SMILES: CNS(=O)(=O)c1cc(-c2ccc3c(c2)CN(c2ncnc(C)c2Cc2ccc(F)cc2)CCO3)cnc1N [Example 363, 2-amino-5-(4-{5-[(4-fluorophenyl)methyl]-6-methylpyrimidin-4-yl}-2,3,4,5-tetrahydro-1,4-benzoxazepin-7-yl)-N-methylpyridine-3-sulfonamide]
IC50: 10 to 50 nM

SMILES: Cc1nc2cc(-c3ccc4c(c3)CN(c3nc(CO)nc(C)c3Cc3ccc(F)cc3)CCO4)ccc2[nH]1 [Example 310, {5-[(4-fluorophenyl)methyl]-4-methyl-6-[7-(2-methyl-1H-benzimidazol-5-yl)-2,3-dihydro-1,4-benzoxazepin-4(5H)-yl]pyrimidin-2-yl}methanol]
IC50: ≤ 10 nM

SMILES: COCCOCc1nc2c(c(N3CCOc4ccc(-c5cnc6nc(C)[nH]c6c5)cc4C3)n1)CC(C)(C)CC2 [Example 495, 4-[6,6-dimethyl-2-({[2-(methyloxy)ethyl]oxy}methyl)-5,6,7,8-tetrahydroquinazolin-4-yl]-7-(2-methyl-1H-imidazo[4,5-b]pyridin-6-yl)-2,3,4,5-tetrahydro-1,4-benzoxazepine]
IC50: ≤ 10 nM

SMILES: CC1(C)CCc2ncnc(N3CCOc4ccc(-c5cnc(N)c(S(=O)(=O)NCCF)c5)cc4C3)c2C1 [Example 366, 2-amino-5-[4-(6,6-dimethyl-5,6,7,8-tetrahydroquinazolin-4-yl)-2,3,4,5-tetrahydro-1,4-benzoxazepin-7-yl]-N-(2-fluoroethyl)pyridine-3-sulfonamide]
IC50: 10 to 50 nM

SMILES: CC1(C)CCc2ncnc(N3CCOc4ccc(-c5cnc(N)c(S(=O)(=O)NC[C@@H]6CCCN6)c5)cc4C3)c2C1 [Example 383, 2-amino-5-[4-(6,6-dimethyl-5,6,7,8-tetrahydroquinazolin-4-yl)-2,3,4,5-tetrahydro-1,4-benzoxazepin-7-yl]-N-[(2S)-pyrrolidin-2-ylmethyl]pyridine-3-sulfonamide]
IC50: 50 to 250 nM

SMILES: C=Cc1nc2c(c(N3CCOc4ccc(-c5cnc6[nH]c(C)nc6c5)cc4C3)n1)CC(C)(C)CC2 [Example 465, 4-(2-ethenyl-6,6-dimethyl-5,6,7,8-tetrahydroquinazolin-4-yl)-7-(2-methyl-3H-imidazo[4,5-b]pyridin-6-yl)-2,3,4,5-tetrahydro-1,4-benzoxazepine]
IC50: 10 to 50 nM

SMILES: CC1(C)CCc2ncnc(N3CCOc4ccc(-c5cnc(N)c(S(=O)(=O)N[C@H]6CCNC6)c5)cc4C3)c2C1 [Example 390]
IC50: 10 to 50 nM

SMILES: Cc1ncnc(N2CCOc3ccc(-c4cnc5nc(N)[nH]c5c4)cc3C2)c1Cc1ccc(F)cc1 [Example 176, 6-(4-{5-[(4-fluorophenyl)methyl]-6-methylpyrimidin-4-yl}-2,3,4,5-tetrahydro-1,4-benzoxazepin-7-yl)-1H-imidazo[4,5-b]pyridin-2-amine]
IC50: ≤ 10 nM

SMILES: c1cc(N2CCOc3ccc(-c4ccc5nc[nH]c5c4)cc3C2)ncn1 [Example 541, 7-(1H-benzimidazol-6-yl)-4-pyrimidin-4-yl-2,3,4,5-tetrahydro-1,4-benzoxazepine]
IC50: ≥ 2000 nM

SMILES: CC1(C)C=Cc2ncnc(N3CCOc4ccc(-c5cnc6nc(C7CC7)[nH]c6c5)cc4C3)c2C1 [Example 545, 7-(2-cyclopropyl-1H-imidazo[4,5-b]pyridin-6-yl)-4-(6,6-dimethyl-5,6-dihydroquinazolin-4-yl)-2,3,4,5-tetrahydro-1,4-benzoxazepine]
IC50: ≤ 10 nM

SMILES: CCNCc1nc2c(c(N3CCOc4ccc(-c5cnc6nc(C)[nH]c6c5)cc4C3)n1)CC(C)(C)CC2 [Example 600, N-({6,6-dimethyl-4-[7-(2-methyl-1H-imidazo[4,5-b]pyridin-6-yl)-2,3-dihydro-1,4-benzoxazepin-4(5H)-yl]-5,6,7,8-tetrahydroquinazolin-2-yl}methyl)ethanamine]
IC50: ≤ 10 nM

SMILES: Cc1nc2ccc(-c3ccc4c(c3)CN(c3ncnc(C)c3CC3CC3)CCO4)cc2[nH]1 [Example 69, 4-[5-(cyclopropylmethyl)-6-methylpyrimidin-4-yl]-7-(2-methyl-1H-benzimidazol-6-yl)-2,3,4,5-tetrahydro-1,4-benzoxazepine]
IC50: 50 to 250 nM

SMILES: CC[C@H]1CCc2c(ncnc2N2CCOc3ccc(-c4cnc(N)c(S(=O)(=O)N5CC[C@@H](N)C5)c4)cc3C2)C1 [Example 451, 3-{[(3R)-3-aminopyrrolidin-1-yl]sulfonyl}-5-{4-[(7S)-7-ethyl-5,6,7,8-tetrahydroquinazolin-4-yl]-2,3,4,5-tetrahydro-1,4-benzoxazepin-7-yl}pyridin-2-amine]
IC50: 10 to 50 nM

Continued, values first:

IC50: 250 to 1000 nM
SMILES: COc1cc2c(N3CCOc4ccc(-c5ccc6nc(C)[nH]c6c5)cc4C3)ncnc2cc1OCc1ccccc1 [Example 10]

IC50: 10 to 50 nM
SMILES: CC1(C)CCc2ncnc(N3CCOc4ccc(-c5cnc(N)c(S(=O)(=O)NC(C)(C)CN)c5)cc4C3)c2C1 [Example 403, 2-amino-N-(2-amino-1,1-dimethylethyl)-5-[4-(6,6-dimethyl-5,6,7,8-tetrahydroquinazolin-4-yl)-2,3,4,5-tetrahydro-1,4-benzoxazepin-7-yl]pyridine-3-sulfonamide]

IC50: 50 to 250 nM
SMILES: CCNc1nc2ncc(-c3ccc4c(c3)CN(c3ccncn3)CCO4)cc2[nH]1 [Example 230, N-ethyl-6-(4-pyrimidin-4-yl-2,3,4,5-tetrahydro-1,4-benzoxazepin-7-yl)-1H-imidazo[4,5-b]pyridin-2-amine]

IC50: 50 to 250 nM
SMILES: CCNC(=O)c1ccc(-c2ccc3c(c2)CN(c2ccnc4ccccc24)CCO3)cc1 [Example 243, N-ethyl-4-(4-quinolin-4-yl-2,3,4,5-tetrahydro-1,4-benzoxazepin-7-yl)benzamide]

IC50: 250 to 1000 nM
SMILES: CCNc1nc2ccc(-c3ccc4c(c3)CN(c3ncnc(NCC)c3C)CCO4)cc2[nH]1 [Example 643, N-ethyl-6-{4-[6-(ethylamino)-5-methylpyrimidin-4-yl]-2,3,4,5-tetrahydro-1,4-benzoxazepin-7-yl}-1H-benzimidazol-2-amine]

IC50: 50 to 250 nM
SMILES: Cc1ncnc(N2CCOc3ccc(-c4ccc(C(=O)NC5CC5)cc4)cc3C2)c1Cc1ccc(F)cc1 [Example 172, N-cyclopropyl-4-(4-{5-[(4-fluorophenyl)methyl]-6-methylpyrimidin-4-yl}-2,3,4,5-tetrahydro-1,4-benzoxazepin-7-yl)benzamide]

IC50: ≥ 2000 nM
SMILES: COC1Cc2nc(CN(C)C)nc(N3CCOc4ccc(-c5ccc6scnc6c5)cc4C3)c2CC1(C)C (stereo not drawn) [Example 338, 1-{4-[7-(1,3-benzothiazol-5-yl)-2,3-dihydro-1,4-benzoxazepin-4(5H)-yl]-6,6-dimethyl-7-(methyloxy)-5,6,7,8-tetrahydroquinazolin-2-yl}-N,N-dimethylmethanamine]

IC50: 10 to 50 nM
SMILES: CC[C@H]1CCc2c(nc(C)nc2N2CCOc3ccc(-c4cnc5nc(NC(=O)OC)[nH]c5c4)cc3C2)C1 [Example 577, methyl (6-{4-[(7S)-7-ethyl-2-methyl-5,6,7,8-tetrahydroquinazolin-4-yl]-2,3,4,5-tetrahydro-1,4-benzoxazepin-7-yl}-1H-imidazo[4,5-b]pyridin-2-yl)carbamate]

IC50: 10 to 50 nM
SMILES: CC1(C)CCc2ncnc(N3CCOc4ccc(-c5cnc(N)c(S(=O)(=O)N6CC(O)C6)c5)cc4C3)c2C1 [Example 315, 1-({2-amino-5-[4-(6,6-dimethyl-5,6,7,8-tetrahydroquinazolin-4-yl)-2,3,4,5-tetrahydro-1,4-benzoxazepin-7-yl]pyridin-3-yl}sulfonyl)azetidin-3-ol]
